Data as given in ChEMBL document CHEMBL4020831, “Discovery of GDC-0853: A Potent, Selective, and Noncovalent Bruton's Tyrosine Kinase Inhibitor in Early Clinical Development” (J Med Chem, 2018).

Key:
[1] = Permeability across apical to basolateral in MDCK1 cells; assay type: ADME, cell-based, Canis lupus familiaris; settings: dog, MDCK; read-out: permeability
[2] = Clearance in human liver microsomes at 1 uM incubated up to 60 mins by LC-MS/MS method; assay type: ADME, microsome
in vitro = settings: dog, MDCK
Description: Efflux ratio of permeability in MDCK1 cells

[3] = molecular target: T1, Tyrosine-protein kinase BTK (Homo sapiens, UniProt Q06187)
T1 sequence (Q06187 whole entry, the tested form may be a part): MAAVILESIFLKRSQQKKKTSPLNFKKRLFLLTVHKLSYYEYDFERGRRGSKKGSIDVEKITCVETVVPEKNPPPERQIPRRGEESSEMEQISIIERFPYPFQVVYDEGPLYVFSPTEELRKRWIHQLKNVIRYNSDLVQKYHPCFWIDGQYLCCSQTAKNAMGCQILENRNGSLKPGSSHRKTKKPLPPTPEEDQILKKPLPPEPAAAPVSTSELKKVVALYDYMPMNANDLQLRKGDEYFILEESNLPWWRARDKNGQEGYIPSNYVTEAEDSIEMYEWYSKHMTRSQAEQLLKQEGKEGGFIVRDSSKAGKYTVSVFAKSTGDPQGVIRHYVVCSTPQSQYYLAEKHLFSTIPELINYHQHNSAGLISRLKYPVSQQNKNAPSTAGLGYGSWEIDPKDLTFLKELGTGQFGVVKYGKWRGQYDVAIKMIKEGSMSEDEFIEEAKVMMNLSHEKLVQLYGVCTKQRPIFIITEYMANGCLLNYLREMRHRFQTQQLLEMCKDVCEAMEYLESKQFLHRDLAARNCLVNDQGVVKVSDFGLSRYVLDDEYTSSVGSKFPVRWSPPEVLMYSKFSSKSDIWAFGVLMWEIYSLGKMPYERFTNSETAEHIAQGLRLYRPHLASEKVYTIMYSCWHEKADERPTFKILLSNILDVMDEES
Description: Inhibition of BTK in human whole blood-derived CD19+ B cells assessed as suppression of anti-IgM stimulated-CD69 expression preincubated for 1 hr followed by IgM stimulation for 18 hrs by FACS analysis

[4] = molecular target: T1, Tyrosine-protein kinase BTK; assay: Inhibition of human recombinant C-terminal polyhistidine tagged BTK (1 to 659 residues)-mediated synthetic peptide substrate phosphorylation expressed in baculovirus-infected insect cells
physchem = settings: buffer, pH 7.4

Papp A→B [1] [×10⁻⁶ cm/s]	CLhep predicted at 1 µM [2] [mL/min/kg]	efflux ratio (in vitro)	IC50 [3] [nM]	Ki [4] [nM]	logD (physchem)	Structure (SMILES)
9	12	1.3	32.2	1	3.3	COCCCN1CCN(c2ccc(Nc3cc(-c4ccnc(N5CCn6c(cc7c6CC(C)(C)C7)C5=O)c4CO)cn(C)c3=O)nc2)CC1
12.5	12	1	36.6	1.2	3.2	COCCN1CCN(c2ccc(Nc3cc(-c4ccnc(N5CCn6c(cc7c6CC(C)(C)C7)C5=O)c4CO)cn(C)c3=O)nc2)CC1
–	13	–	27.5	0.32	2.3	C[C@H]1CN(c2ccc(Nc3cc(-c4cc(F)cc(N5CCn6c(cc7c6CCCC7)C5=O)c4CO)cn(C)c3=O)nc2)CCN1C
–	14	–	31.6	0.45	–	Cn1cc(-c2ccnc(N3CCn4c(cc5c4CC(C)(C)C5)C3=O)c2CO)cc(Nc2ccc(N3CCN(C4CCOCC4)CC3)cn2)c1=O
11.1	8.8	1.2	66.5	1.8	2.9	CC(=O)N1CCN(c2ccc(Nc3cc(-c4ccnc(N5CCn6c(cc7c6CC(C)(C)C7)C5=O)c4CO)cn(C)c3=O)nc2)CC1
–	8.1	–	–	2.5	–	Cn1cc(-c2ccnc(N3CCn4c5c(c(F)c4C3=O)CCCC5)c2CO)cc(Nc2ccc(N3CCN(C4COC4)CC3)cn2)c1=O
–	10	–	–	1	–	Cn1cc(-c2ccnc(N3Cc4cc(C(C)(C)C)sc4C3=O)c2CO)cc(Nc2ccc(N3CCN(C4COC4)CC3)cn2)c1=O
–	15	–	–	–	3.1	CN1CCN(c2ccc(Nc3cc(-c4cc(F)cc(N5CCn6c(cc7c6CCCC7)C5=O)c4CO)cn(C)c3=O)nc2)CC1
–	8.1	–	54.9	1.8	2	Cn1cc(-c2ccnc(N3CCn4c(cc5c4CCCC5)C3=O)c2CO)cc(Nc2ccc(N3CCN(C4COC4)CC3)cn2)c1=O
–	10	–	33.4	3.3	2.5	CC(=O)N1CC2(C1)CN(c1ccc(Nc3cc(-c4ccnc(N5CCn6c(cc7c6CC(C)(C)C7)C5=O)c4CO)cn(C)c3=O)nc1)C2
–	13	–	–	5.97	–	Cn1cc(-c2ccnc(N3CCc4c(sc5c4CCCC5)C3=O)c2CO)cc(Nc2ccc(N3CCN(C4COC4)CC3)cn2)c1=O
14.2	16	0.6	116	4	4.4	Cn1cc(-c2ccnc(N3CCn4c(cc5c4CC(C)(C)C5)C3=O)c2CO)cc(Nc2ccc(N3CCN(CCC(F)(F)F)CC3)cn2)c1=O
–	13.5	–	–	0.58	–	Cn1cc(-c2ccnc(N3CCc4c(sc5c4CC(C)(C)C5)C3=O)c2CO)cc(Nc2ccc(N3CCN(C4COC4)CC3)cn2)c1=O
–	13	–	16.9	0.37	3.1	C[C@@H]1CN(C)CCN1c1ccc(Nc2cc(-c3cc(F)cc(N4CCn5c(cc6c5CCCC6)C4=O)c3CO)cn(C)c2=O)nc1
–	14	–	4.6	0.65	3.2	C[C@H]1CN(C)CCN1c1ccc(Nc2cc(-c3cc(F)cc(N4CCn5c(cc6c5CCCC6)C4=O)c3CO)cn(C)c2=O)nc1
–	13	–	12.7	0.43	3.3	C[C@@H]1CN(c2ccc(Nc3cc(-c4cc(F)cc(N5CCn6c(cc7c6CCCC7)C5=O)c4CO)cn(C)c3=O)nc2)CCN1C
–	8	–	387	6.9	1.8	Cn1cc(-c2nccc(N3CCn4c(cc5c4CCCC5)C3=O)c2CO)cc(Nc2ccc(N3CCN(C4COC4)CC3)cn2)c1=O
48.5	16	0.4	23.5	0.43	3	Cn1cc(-c2ccnc(N3CCn4c(cc5c4CC(C)(C)C5)C3=O)c2CO)cc(Nc2ccc(C3CN(C4COC4)C3)cn2)c1=O
–	7.9	–	64.4	6.3	1.9	Cn1cc(-c2cncc(N3CCn4c(cc5c4CCCC5)C3=O)c2CO)cc(Nc2ccc(N3CCN(C4COC4)CC3)cn2)c1=O
–	9.2	–	–	4.2	–	Cn1cc(-c2ccnc(-n3ccn4c5c(cc4c3=O)CCCC5)c2CO)cc(Nc2ccc(N3CCN(C4COC4)CC3)cn2)c1=O
